Reference: ChEMBL document CHEMBL4507268 (2021)

Assays:
[1] = target: Serine/threonine-protein kinase VRK2 (Homo sapiens) (UniProt Q86Y07); conditions: Compound concentration 1.0 uM
[2] = target: T1, Serine/threonine-protein kinase TBK1 (Homo sapiens) (UniProt Q9UHD2); conditions: Compound concentration 1.0 uM
T1 sequence (whole entry): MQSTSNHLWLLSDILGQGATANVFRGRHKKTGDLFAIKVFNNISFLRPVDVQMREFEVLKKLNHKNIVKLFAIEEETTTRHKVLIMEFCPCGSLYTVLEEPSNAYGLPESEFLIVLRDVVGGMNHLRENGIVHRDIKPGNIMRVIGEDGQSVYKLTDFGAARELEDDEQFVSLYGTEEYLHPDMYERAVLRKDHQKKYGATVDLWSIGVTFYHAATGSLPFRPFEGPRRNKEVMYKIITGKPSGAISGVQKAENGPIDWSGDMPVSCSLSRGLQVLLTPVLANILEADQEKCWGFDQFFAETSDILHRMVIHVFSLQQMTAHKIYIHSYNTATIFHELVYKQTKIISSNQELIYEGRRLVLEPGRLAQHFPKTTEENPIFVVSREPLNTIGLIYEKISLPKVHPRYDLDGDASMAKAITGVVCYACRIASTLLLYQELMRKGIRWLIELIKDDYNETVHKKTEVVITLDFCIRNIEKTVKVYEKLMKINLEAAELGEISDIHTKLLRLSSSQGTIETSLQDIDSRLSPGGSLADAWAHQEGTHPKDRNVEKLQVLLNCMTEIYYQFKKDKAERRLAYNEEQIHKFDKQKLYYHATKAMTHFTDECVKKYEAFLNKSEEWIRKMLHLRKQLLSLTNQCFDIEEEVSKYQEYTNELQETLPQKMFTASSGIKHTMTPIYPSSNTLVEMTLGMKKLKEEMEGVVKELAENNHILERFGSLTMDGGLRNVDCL

[3] = target: Receptor-type tyrosine-protein kinase FLT3 (Homo sapiens) (UniProt P36888); conditions: Compound concentration 1.0 uM
Receptor-type tyrosine-protein kinase FLT3 (Homo sapiens), sequence (P36888 whole entry): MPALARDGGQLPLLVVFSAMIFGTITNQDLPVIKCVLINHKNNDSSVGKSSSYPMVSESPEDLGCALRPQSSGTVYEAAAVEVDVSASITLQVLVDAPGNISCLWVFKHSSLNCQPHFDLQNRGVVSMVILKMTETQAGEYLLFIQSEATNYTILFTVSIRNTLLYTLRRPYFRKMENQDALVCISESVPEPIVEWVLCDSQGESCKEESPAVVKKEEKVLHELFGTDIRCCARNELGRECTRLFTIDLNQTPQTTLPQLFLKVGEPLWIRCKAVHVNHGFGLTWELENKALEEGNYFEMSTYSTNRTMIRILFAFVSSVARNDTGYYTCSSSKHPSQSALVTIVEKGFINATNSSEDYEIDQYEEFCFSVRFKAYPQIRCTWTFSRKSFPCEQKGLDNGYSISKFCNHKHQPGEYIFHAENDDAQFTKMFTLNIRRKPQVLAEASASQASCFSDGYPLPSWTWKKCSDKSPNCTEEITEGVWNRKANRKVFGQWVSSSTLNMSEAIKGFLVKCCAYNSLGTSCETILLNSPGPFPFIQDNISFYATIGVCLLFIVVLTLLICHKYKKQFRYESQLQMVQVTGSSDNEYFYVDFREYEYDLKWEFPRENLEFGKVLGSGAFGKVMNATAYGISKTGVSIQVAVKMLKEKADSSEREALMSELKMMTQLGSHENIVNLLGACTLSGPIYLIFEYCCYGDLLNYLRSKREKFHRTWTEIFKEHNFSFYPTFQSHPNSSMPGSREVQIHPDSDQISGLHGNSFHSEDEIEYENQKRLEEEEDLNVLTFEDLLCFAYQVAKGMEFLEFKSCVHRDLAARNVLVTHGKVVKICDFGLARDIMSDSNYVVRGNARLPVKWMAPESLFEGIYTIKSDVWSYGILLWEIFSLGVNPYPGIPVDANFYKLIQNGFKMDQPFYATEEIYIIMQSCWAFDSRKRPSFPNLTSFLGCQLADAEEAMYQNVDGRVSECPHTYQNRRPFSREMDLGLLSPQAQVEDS

[4] = target: Sodium-dependent serotonin transporter (Homo sapiens) (UniProt P31645); conditions: Compound concentration 10.0 uM
Sodium-dependent serotonin transporter (Homo sapiens), sequence (P31645 whole entry, looked up): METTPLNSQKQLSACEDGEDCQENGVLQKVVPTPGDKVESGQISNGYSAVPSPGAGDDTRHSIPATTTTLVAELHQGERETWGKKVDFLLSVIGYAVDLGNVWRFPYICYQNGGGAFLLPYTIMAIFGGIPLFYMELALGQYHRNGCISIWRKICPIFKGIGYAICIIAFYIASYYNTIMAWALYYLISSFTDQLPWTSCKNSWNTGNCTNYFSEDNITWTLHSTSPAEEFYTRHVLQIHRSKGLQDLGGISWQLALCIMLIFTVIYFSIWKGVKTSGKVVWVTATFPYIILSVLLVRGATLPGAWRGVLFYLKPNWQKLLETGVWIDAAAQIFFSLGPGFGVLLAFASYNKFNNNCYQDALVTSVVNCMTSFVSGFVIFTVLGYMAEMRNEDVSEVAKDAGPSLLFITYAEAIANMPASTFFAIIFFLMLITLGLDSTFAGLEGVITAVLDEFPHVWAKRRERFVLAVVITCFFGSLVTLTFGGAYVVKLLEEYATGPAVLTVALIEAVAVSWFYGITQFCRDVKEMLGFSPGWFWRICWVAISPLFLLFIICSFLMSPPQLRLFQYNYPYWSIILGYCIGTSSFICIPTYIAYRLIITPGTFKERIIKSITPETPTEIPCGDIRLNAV

[5] = target: T2, Tyrosine-protein kinase Mer (Homo sapiens) (UniProt Q12866); conditions: Compound concentration 1.0 uM
T2 sequence (whole entry): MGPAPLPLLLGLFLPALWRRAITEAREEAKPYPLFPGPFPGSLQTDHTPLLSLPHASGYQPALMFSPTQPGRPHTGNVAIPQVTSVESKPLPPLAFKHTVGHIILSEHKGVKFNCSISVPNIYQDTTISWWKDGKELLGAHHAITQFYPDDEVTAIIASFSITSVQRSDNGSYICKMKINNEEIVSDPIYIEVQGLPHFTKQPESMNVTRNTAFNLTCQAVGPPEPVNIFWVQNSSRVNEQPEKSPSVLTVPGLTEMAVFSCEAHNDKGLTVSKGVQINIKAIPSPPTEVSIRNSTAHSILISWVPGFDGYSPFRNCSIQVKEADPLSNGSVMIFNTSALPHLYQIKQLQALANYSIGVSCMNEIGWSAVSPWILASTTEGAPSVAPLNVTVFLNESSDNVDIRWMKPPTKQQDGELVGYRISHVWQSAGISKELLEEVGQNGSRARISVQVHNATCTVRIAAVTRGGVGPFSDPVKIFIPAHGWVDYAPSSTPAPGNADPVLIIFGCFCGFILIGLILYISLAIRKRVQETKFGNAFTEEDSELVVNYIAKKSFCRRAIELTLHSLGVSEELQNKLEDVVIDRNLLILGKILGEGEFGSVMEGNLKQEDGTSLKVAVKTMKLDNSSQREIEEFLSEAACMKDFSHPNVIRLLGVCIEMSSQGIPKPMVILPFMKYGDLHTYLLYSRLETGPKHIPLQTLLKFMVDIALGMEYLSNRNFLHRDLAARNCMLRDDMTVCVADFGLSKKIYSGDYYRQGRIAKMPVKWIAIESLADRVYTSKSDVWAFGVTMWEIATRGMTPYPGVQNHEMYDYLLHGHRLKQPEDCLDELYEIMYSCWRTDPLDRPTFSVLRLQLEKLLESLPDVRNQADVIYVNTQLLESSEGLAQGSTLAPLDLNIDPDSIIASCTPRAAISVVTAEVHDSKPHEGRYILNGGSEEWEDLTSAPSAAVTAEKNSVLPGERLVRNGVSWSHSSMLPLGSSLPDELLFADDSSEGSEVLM

[6] = target: T3, Aurora kinase A (Homo sapiens) (UniProt O14965); conditions: Compound concentration 1.0 uM
T3 sequence (whole entry): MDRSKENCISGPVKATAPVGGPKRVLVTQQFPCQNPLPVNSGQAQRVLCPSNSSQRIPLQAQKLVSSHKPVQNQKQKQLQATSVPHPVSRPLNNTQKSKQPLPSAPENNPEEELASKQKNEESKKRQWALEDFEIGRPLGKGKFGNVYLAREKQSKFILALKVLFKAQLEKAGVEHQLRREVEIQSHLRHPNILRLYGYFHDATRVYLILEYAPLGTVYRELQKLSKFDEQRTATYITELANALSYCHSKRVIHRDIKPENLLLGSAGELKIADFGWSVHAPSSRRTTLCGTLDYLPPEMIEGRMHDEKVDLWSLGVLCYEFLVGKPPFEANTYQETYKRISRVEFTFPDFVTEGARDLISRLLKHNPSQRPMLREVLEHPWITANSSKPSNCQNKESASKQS

[7] = target: Eukaryotic elongation factor 2 kinase (Homo sapiens) (UniProt O00418); conditions: Compound concentration 1.0 uM
Eukaryotic elongation factor 2 kinase (Homo sapiens), sequence (O00418 whole entry): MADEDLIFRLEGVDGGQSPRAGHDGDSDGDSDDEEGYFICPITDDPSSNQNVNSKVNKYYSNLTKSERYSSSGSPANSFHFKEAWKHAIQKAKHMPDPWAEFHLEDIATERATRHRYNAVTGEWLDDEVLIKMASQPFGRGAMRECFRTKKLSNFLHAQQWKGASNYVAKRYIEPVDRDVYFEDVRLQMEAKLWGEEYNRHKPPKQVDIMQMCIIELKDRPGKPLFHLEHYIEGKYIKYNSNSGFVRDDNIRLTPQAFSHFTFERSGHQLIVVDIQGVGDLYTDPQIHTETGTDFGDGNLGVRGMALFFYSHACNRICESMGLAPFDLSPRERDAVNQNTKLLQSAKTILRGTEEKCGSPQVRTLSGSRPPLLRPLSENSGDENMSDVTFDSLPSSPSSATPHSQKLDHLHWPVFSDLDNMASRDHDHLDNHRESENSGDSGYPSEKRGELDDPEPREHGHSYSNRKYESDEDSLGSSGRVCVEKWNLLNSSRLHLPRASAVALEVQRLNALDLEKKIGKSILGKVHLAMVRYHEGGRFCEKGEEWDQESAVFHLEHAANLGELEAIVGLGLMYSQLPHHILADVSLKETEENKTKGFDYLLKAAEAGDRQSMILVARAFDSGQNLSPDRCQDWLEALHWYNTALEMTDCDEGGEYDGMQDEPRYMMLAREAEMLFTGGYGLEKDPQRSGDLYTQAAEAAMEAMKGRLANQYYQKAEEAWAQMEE

[8] = target: Insulin receptor-related protein (Homo sapiens) (UniProt P14616); conditions: Compound concentration 1.0 uM
Insulin receptor-related protein (Homo sapiens), sequence (P14616 27-742 limits assumed): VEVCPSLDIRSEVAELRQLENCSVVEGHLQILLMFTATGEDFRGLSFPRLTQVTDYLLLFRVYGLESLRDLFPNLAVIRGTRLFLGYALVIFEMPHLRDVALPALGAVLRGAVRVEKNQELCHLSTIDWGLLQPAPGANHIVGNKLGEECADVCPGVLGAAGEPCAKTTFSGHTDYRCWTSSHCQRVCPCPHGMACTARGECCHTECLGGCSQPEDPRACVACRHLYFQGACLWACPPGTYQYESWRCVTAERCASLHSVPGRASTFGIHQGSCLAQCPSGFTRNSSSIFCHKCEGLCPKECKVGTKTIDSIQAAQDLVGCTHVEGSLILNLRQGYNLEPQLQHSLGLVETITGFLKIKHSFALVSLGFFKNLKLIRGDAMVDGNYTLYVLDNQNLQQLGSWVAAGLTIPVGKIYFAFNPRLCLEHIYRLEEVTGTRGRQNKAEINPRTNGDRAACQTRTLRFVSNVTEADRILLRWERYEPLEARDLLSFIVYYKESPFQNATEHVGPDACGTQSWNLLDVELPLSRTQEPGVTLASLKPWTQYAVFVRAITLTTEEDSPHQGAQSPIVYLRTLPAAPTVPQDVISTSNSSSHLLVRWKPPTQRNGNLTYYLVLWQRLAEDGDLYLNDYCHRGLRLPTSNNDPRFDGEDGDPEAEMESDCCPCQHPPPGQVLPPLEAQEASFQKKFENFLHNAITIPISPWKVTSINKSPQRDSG
Insulin receptor-related protein (Homo sapiens), sequence (P14616 747-1297 limits assumed): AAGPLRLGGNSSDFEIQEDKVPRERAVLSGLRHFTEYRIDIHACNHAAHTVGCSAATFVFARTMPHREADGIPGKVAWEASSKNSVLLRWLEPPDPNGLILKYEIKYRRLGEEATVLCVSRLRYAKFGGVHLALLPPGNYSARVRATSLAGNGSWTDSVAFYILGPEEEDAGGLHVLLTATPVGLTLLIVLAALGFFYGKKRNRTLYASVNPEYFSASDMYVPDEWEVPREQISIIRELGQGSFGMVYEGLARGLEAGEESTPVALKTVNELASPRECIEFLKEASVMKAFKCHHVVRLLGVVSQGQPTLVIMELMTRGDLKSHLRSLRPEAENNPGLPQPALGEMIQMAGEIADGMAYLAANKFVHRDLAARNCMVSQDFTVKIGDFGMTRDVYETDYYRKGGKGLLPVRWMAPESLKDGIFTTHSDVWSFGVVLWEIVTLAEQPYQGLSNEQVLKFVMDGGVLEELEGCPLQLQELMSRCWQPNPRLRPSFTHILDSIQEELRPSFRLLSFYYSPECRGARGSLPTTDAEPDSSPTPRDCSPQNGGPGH

[9] = target: Epithelial discoidin domain-containing receptor 1 (Homo sapiens) (UniProt Q08345); conditions: Compound concentration 1.0 uM
[10] = target: Mitogen-activated protein kinase kinase kinase kinase 1 (Homo sapiens) (UniProt Q92918); conditions: Compound concentration 1.0 uM
[11] = target: Serine/threonine-protein kinase N1 (Homo sapiens) (UniProt Q16512); conditions: Compound concentration 1.0 uM
[12] = target: Tyrosine-protein kinase receptor UFO (Homo sapiens) (UniProt P30530); conditions: Compound concentration 1.0 uM
[13] = target: Mitogen-activated protein kinase kinase kinase 11 (Homo sapiens) (UniProt Q16584); conditions: Compound concentration 1.0 uM
Mitogen-activated protein kinase kinase kinase 11 (Homo sapiens), sequence (Q16584 whole entry, looked up): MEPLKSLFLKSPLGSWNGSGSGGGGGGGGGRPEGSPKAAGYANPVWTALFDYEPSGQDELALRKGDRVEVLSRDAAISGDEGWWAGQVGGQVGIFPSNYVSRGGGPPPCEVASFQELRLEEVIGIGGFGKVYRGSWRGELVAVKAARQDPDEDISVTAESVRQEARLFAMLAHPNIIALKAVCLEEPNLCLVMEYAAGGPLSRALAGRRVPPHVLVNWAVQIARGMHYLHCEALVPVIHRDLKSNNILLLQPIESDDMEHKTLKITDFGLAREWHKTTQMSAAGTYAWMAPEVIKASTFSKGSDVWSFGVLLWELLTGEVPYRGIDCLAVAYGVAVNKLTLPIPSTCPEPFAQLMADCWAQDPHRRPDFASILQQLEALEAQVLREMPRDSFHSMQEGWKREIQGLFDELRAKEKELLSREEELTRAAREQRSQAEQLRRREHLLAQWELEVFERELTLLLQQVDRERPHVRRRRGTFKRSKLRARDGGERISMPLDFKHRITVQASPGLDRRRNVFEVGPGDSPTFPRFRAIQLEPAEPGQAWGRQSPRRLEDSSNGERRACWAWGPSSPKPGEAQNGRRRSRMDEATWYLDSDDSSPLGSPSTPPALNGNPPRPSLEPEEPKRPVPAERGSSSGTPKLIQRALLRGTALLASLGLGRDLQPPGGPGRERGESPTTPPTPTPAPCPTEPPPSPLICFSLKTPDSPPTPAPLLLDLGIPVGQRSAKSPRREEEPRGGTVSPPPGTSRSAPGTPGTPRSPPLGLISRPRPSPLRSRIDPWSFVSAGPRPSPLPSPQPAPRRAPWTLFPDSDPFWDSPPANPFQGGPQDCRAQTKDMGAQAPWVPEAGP

Serine/threonine-protein kinase VRK2 (Homo sapiens), sequence (Q86Y07 whole entry): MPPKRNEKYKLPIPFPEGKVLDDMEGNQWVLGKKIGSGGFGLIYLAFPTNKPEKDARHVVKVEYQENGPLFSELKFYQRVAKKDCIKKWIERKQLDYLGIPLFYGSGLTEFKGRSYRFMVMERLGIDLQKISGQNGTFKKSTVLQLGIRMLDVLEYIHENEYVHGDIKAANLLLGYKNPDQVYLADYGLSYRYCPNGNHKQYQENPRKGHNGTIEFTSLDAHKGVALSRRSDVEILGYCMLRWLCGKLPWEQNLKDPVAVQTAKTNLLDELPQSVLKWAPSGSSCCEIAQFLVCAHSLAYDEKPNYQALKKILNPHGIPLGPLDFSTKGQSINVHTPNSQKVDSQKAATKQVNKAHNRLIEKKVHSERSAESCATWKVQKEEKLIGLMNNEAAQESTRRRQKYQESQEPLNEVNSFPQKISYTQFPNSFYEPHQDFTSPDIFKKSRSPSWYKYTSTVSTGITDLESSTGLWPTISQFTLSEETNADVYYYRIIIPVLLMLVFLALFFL

CN1CCN(c2cnc3c(C4CCN(C(=O)c5ccc(OC(F)(F)F)cc5N)CC4)ncnc3c2)CC1 [BAY-885]
inactive: % residual kinase activity [1] 106% | % residual kinase activity [2] 118% | % residual kinase activity [3] 100% | inhibition [4] 32.4% | % residual kinase activity [5] 91% | % residual kinase activity [6] 109% | % residual kinase activity [7] 113% | % residual kinase activity [8] 111% | % residual kinase activity [9] 100% | % residual kinase activity [10] 106% | % residual kinase activity [11] 114% | % residual kinase activity [12] 91% | % residual kinase activity [13] 112%
